This is an account of results in patent US10577399B2, “Modified lantibiotics and methods of making and using the modified lantibiotics” (priority 2016, dated 2020).

≈ marks a conversion by molar mass, not a printed value. Read-outs that look alike come from different tables or passages of the source. No end group written: not given here.

In data set [1] the test system is S. aureus ATCC 25923. Briefly: MIC/MLC assay against S. aureus. Type of data set: cell-based, Staphylococcus aureus. Conditions: Table 11.
Data set [2] deals with M. luteus ATCC 10240. Type of data set: cell-based, Micrococcus luteus. Conditions: for M. luteus ATCC 10240 MIC / M. luteus ATCC 10240 MLC: Table 11. As for the experimental part:
(§1) Minimum Inhibitory Concentrations (MICs) were determined according to previously published protocol^31. A stock solution of the antibiotics tested was first suspended in 50% acetonitrile (ACN) at a concentration 640 μg/mL. This stock was subsequently diluted 2-fold until a final concentration 0.156 μg/mL was reached. Subsequently, 10 μl of each dilution was placed into a well on a 96 well microtiter plate. M. luteus ATCC 10240, S. pneumoniae, and B. subtilis PY79 were grown overnight in THyex at 37° C. Cultures were diluted in the morning to 0.1 OD600 and allowed to grow to 0.6 OD600. This culture was diluted a 100-fold in fresh THyex media and then 400 μl of this culture was added to 10 mL of fresh THyex. The suspension contains approximately 10^5 colony forming units (CFUs). The bacterial suspension (190 μL) was added to each well containing 10 μL of antibiotic suspension or solvent blank. […] Following the 15 minute pretreatment, 190 μL was added to each well as described above. The MIC is described as the […] concentration of antibiotic that prevented visible growth after 24 hours.
FIG. 11 illustrates the bioactivity of various core peptide mutants of mutacin 1130. The activity of the core mutant peptides is expressed as a ratio of the area of the zone of inhibition of each mutant strain to the area of the zone of inhibition of the wild-type strain against indicator strain of Micrococcus luteus. […] The deferred antagonism assay is an overlay assay of the indicator strain onto plates containing heat killed colonies of the mutacin producer strain after growing overnight. Core peptide mutants having inhibitory activity were isolated and the purified products were further evaluated by a standard minimum inhibitory concentration (MIC) assay.

Data set [3] has as its system C. accolens ATCC 49725. Briefly: MIC/MLC assay against C. accolens ATCC 49725. To be noted: THyex broth with 1% Tween 80. Type of data set: cell-based.
Data set [4] relates to S. pneumoniae ATCC 27336. Type of data set: cell-based, Streptococcus pneumoniae. To be noted: Table 11. As for the experimental part: as §1, with “hours. […]” for “hours.”
The test system of data set [5] is C. accolens KPL 1818. Briefly: MIC/MLC assay against C. accolens KPL 1818. Type of data set: cell-based. To be noted: THyex broth with 1% Tween 80.
The test system of data set [6] is M. luteus ATCC 10240. In words: Deferred antagonism (overlay) assay, zone of inhibition. Type of data set: cell-based, Micrococcus luteus. Conditions: relative to wild-type strain. As for the experimental part: The deferred antagonism assay was performed as previously described^39. S. mutans strains were grown overnight in THyex broth at 37° C. The cultures were diluted to 0.1 OD OD600 and grown to mid-logarithmic phase before diluting to 0.05 OD600. Then, 2 μl of the cultures were spotted on THyex plates in duplicates of triplicates. The wild-type S. mutans JH1140 and S. mutans ΔmutA were used as positive and negative controls for activity, respectively. The plates were incubated for 18 hours in a candle jar at 37° C. After incubation, the strains were heat killed at 65° C. for 90 minutes. Fresh M. luteus grown overnight at 37° C. on THyex plates were used to inoculate pre-warmed THyex broth. The culture was grown to 0.6 to 0.8 OD before diluting to 0.2 OD600. The culture was further diluted 25-fold in melted (42° C.) THyex top agar. Approximately 5 mL of the top agar solution was spread on the heat killed bioassay plates and allowed to cool for 10 minutes. The plates were then placed in the incubator (at 37° C.) for 18 hours.
Streptococcus mutans ATCC 55676 (wild-type) and the mutants that were at an OD600 of 0.2 were spotted in triplicates on a pre-warmed THyex agar plate (150×15 mm) and allowed to dry. This assay was performed in this manner to ensure that each sample had the same colony size for comparing zones of inhibition. The plate was incubated for 24 hours then placed in an oven at 50° C. for thirty minutes to kill the bacteria before the indicator strain was overlaid. Heat killing the bacteria prevents any further antimicrobial compound production so that results seen are from single day incubation. Zone diameter was measured in millimeters across the plate and compared to wild-type (i.e. zone I for ATCC compared to zone I of Trp4Ala, etc.).

The nature of data set [7]: Pharmacokinetics after intravenous dose in mice. Type of data set: in vivo. To be noted: 2.5 mg/kg i. v., BALB/c mice; at 70 minutes. As for the experimental part: The compounds were dissolved in normal saline for all pharmacokinetic studies. An extraction protocol was developed in vitro by the addition of each compound to commercially bought BALB/c mouse serum. The compounds were extracted by the addition of 70% ACN containing 0.1% TFA/30% methanol containing 0.4% formic acid. The extract was then analyzed by LC-MS using a TSQ Vantage Triple Quad mass spectrometer. A standard curve was generated for each compound using known dilutions of the compounds in serum, which was then extracted. The R-squared values for each standard exceeded 0.98. BALB/c mice were used to evaluate pharmacokinetics of the compounds in vivo. A 2.5 mg/kg i. v. dose was evaluated for native mutacin, R13A, S5G, and double mutant S5A:T14G (FIG. 12A). A polynomial second order was used to estimate the peak plasma concentration and half-life of the R13A. […] Possibly, the Dhb14 residue may protect the peptide from trypsin-like proteases in the blood. […] Thus, taking the dynamics of cell death into account and the pharmacokinetics of the R13A, the R13A in serum is above the inhibitory concentration for S. pneumonia long enough to kill the pathogen.

Turning to “S5T: core peptide mutant of mutacin 1140, Serine 5 replaced by Threonine (FKSWTLCTPGCARTGSFNSYCC; UniProt O68586 42-63, looked up, variant S5T) [Mutant S5T]”, in data set [1], the “S. aureus ATCC 25923 MIC” value is on record as greater than 32 micrograms per milliliter and the “S. aureus ATCC 25923 MLC” value is on record as greater than 32 micrograms per milliliter. Also, in data set [2], the “M. luteus ATCC 10240 MIC” value is listed as 4 micrograms per milliliter and the “M. luteus ATCC 10240 MLC” value is on record as 4 micrograms per milliliter. Besides, in data set [3], the “C. accolens ATCC 49725 MIC” value was greater than 4 micrograms per milliliter and the “C. accolens ATCC 49725 MLC” value is recorded as greater than 4 micrograms per milliliter. Besides, in data set [4], the “S. pneumonia ATCC 27336 MIC” value turned out to be 2 micrograms per milliliter and the “S. pneumonia ATCC 27336 MLC” value came to 2 micrograms per milliliter. In addition, in data set [5], the “C. accolens KPL 1818 MIC” value is greater than 4 micrograms per milliliter and the “C. accolens KPL 1818 MLC” value is greater than 4 micrograms per milliliter.

“A12T:T14G: core peptide mutant of mutacin 1140, positions 12, 14 replaced by Threonine and Glycine (FKSWSLCTPGCTRGGSFNSYCC; ends and bridges not checked; cysteine pairing not given here; UniProt O68586 42-63, looked up, variant A12T T14G)”: in data set [1], the “S. aureus ATCC 25923 MIC” value is greater than 32 micrograms per milliliter and the “S. aureus ATCC 25923 MLC” value is greater than 32 micrograms per milliliter. Moreover, in data set [2], the “M. luteus ATCC 10240 MIC” value is recorded as 0.25 micrograms per milliliter and the “M. luteus ATCC 10240 MLC” value is reported as 0.25 micrograms per milliliter. Further, in data set [3], the “C. accolens ATCC 49725 MIC” value was 0.125 micrograms per milliliter and the “C. accolens ATCC 49725 MLC” value came out at 0.25 micrograms per milliliter. Also, in data set [4], the “S. pneumonia ATCC 27336 MIC” value came out at 2 micrograms per milliliter and the “S. pneumonia ATCC 27336 MLC” value is 2 micrograms per milliliter. Besides, in data set [5], the “C. accolens KPL 1818 MIC” value came to 0.5 micrograms per milliliter and the “C. accolens KPL 1818 MLC” value was found to be 1 micrograms per milliliter.

Turning to `C=C1NC(=O)[C@H](Cc2c[nH]c3ccccc23)NC(=O)[C@H](NC(=O)[C@H](CCCCN)NC(=O)[C@@H](N)Cc2ccccc2)CSC[C@@H](C(=O)N[C@H]2C(=O)N3CCC[C@H]3C(=O)NCC(=O)N[C@H](C(=O)N[C@@H](C)C(=O)N[C@@H](CCCNC(=N)N)C(=O)N/C(=C\C)C(=O)NCC(=O)N[C@@H]3CSC[C@@H]4NC(=O)[C@H](Cc5ccc(O)cc5)NC(=O)[C@@H](CS/C=C\NC4=O)NC(=O)[C@H](CC(N)=O)NC(=O)[C@H](Cc4ccccc4)NC3=O)CS[C@H]2C)NC(=O)[C@H](C)NC1=O` [Mutant Leu6Ala], in data set [2] (Table 10, indicator strain Micrococcus luteus), the “MIC” value was 0.0625 µg/mL (≈ 0.0281 µM). In data set [2] (purified variants), the “activity relative to wild-type mutacin 1140 (M. luteus)” value is “two-fold more active”. Further, the “zone of inhibition / inhibitory activity in deferred antagonism assay” value (shortened to “zone of inhibition / inhibitory activity”) in data set [6] was “larger zone of inhibition”.

Regarding “G15A*: core peptide mutant of mutacin 1140, Glycine 15 replaced by Alanine (FKSWSLCTPGCARTASFNSYCC; ends and bridges not checked; cysteine pairing not given here; UniProt O68586 42-63, looked up, variant G15A)”, in data set [1], the “S. aureus ATCC 25923 MIC” value is given as 16 micrograms per milliliter and the “S. aureus ATCC 25923 MLC” value was 16 micrograms per milliliter. In data set [2], the “M. luteus ATCC 10240 MIC” value was determined as 0.125 micrograms per milliliter and the “M. luteus ATCC 10240 MLC” value is recorded as 0.125 micrograms per milliliter. Moreover, in data set [3], the “C. accolens ATCC 49725 MIC” value is 1 micrograms per milliliter and the “C. accolens ATCC 49725 MLC” value came out at 1 micrograms per milliliter. Further, in data set [4], the “S. pneumonia ATCC 27336 MIC” value was 0.5 micrograms per milliliter and the “S. pneumonia ATCC 27336 MLC” value is given as 0.5 micrograms per milliliter. Moreover, in data set [5], the “C. accolens KPL 1818 MIC” value stood at 1 micrograms per milliliter and the “C. accolens KPL 1818 MLC” value turned out to be 2 micrograms per milliliter. In addition, the “zone of inhibition / inhibitory activity” value in data set [6] is “no change in activity”.

On to `C=C1NC(=O)[C@H](Cc2c[nH]c3ccccc23)NC(=O)[C@H](NC(=O)[C@H](C)NC(=O)[C@@H](N)Cc2ccccc2)CSC[C@@H](C(=O)N[C@H]2C(=O)N3CCC[C@H]3C(=O)NCC(=O)N[C@H](C(=O)N[C@@H](C)C(=O)N[C@@H](CCCNC(=N)N)C(=O)N/C(=C\C)C(=O)NCC(=O)N[C@@H]3CSC[C@@H]4NC(=O)[C@H](Cc5ccc(O)cc5)NC(=O)[C@@H](CS/C=C\NC4=O)NC(=O)[C@H](CC(N)=O)NC(=O)[C@H](Cc4ccccc4)NC3=O)CS[C@H]2C)NC(=O)[C@H](CC(C)C)NC1=O` [Mutant Lys2Ala], for which the “MIC” value in data set [2] (ATCC 10240) came to 0.125 µg/mL (≈ 0.0566 µM). The “zone of inhibition / inhibitory activity” value in data set [6] is listed as “larger zone of inhibition”.

Consider “C-terminal fluorescein conjugate of mutacin 1140: mu1140-COOH coupled to 5-(aminoacetamido)fluorescein at the C-terminus (FKSWSLCTPGCARTGSFNSYCC-{5‑(aminoacetamido)fluorescein}; ends and bridges not checked; UniProt O68586 42-63, looked up)”, for which the “zone of inhibition / inhibitory activity” value in data set [6] is listed as “has the inhibitory activity”.

`CC(C)C[C@@H]1NC(=O)[C@H](C)NC(=O)[C@H](Cc2c[nH]c3ccccc23)NC(=O)C(NC(=O)[C@H](CCCCN)NC(=O)[C@@H](N)Cc2ccccc2)CSC[C@@H](C(=O)NC2C(=O)N3CCC[C@H]3C(=O)NCC(=O)N[C@H](C(=O)N[C@@H](C)C(=O)N[C@@H](CCCNC(=N)N)C(=O)NCC(=O)NCC(=O)NC3CSC[C@@H]4NC(=O)[C@H](Cc5ccc(O)cc5)NC(=O)[C@@H](CS/C=C\NC4=O)NC(=O)[C@H](CC(N)=O)NC(=O)[C@H](Cc4ccccc4)NC3=O)CSC2C)NC1=O` (some centres unmarked) [S5A:T14G]: the “plasma level / clearance from blood” value in data set [7] is “performed the worst”.

The term MIC denotes the lowest concentration found to suppress growth. High values mean a need for much substance, low ones inhibition by little substance.
